Measured values as given in patent US20230278972A1, “SUBSTITUTED HALOALKYL SULFONANILIDE HERBICIDES” (FMC Corporation, priority 2020, published 2023).

Tests used:
[1] = system: Ryegrass, Italian (Italian ryegrass, Lolium multiflorum); test: Test A preemergence, Ryegrass, Italian; type: in vivo; conditions: Lolium multiflorum, pre-emergence, 240 h, Preemergence
How it was run: (§1)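 Whole-plant herbicidal screen in pots of loam blended with sand. Sprays used a surfactant-containing, non-phytotoxic solvent vehicle. Timing was preemergence soil-directed at planting or postemergence at the one- to two-leaf stage (2–10 cm).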

[2] = system: pigweed (Amaranthus retroflexus); test: Test A postemergence, pigweed; type: in vivo; conditions: Amaranthus retroflexus, post-emergence, 240 h, Postemergence, 0 to 100 scale (0 no effect, 100 complete control)
How it was run: as §1

[3] = system: barnyardgrass (Echinochloa crus-galli); test: Test B flooded paddy test, barnyardgrass; conditions: 336 h, read-out: Plant response rating, Barnyardgrass
[4] = system: Foxtail, Giant (giant foxtail, Setaria faberi); test: Test A preemergence, Foxtail, Giant; type: in vivo; conditions: Setaria faberi, pre-emergence, 240 h, Preemergence
How it was run: as §1

[5] = system: barnyardgrass (Echinochloa crus-galli); test: Test A preemergence, barnyardgrass; type: in vivo; conditions: Echinochloa crus-galli, pre-emergence, 240 h, Preemergence
How it was run: as §1

Compound `Cc1cc(C)c(N(COC(=O)C(C)(C)C)S(=O)(=O)C(F)(F)F)cc1C1=NOC2(CCCC2)C1` [Compound 140, [[2,4-Dimethyl-5-(1-oxa-2-azaspiro[4.4]non-2-en-3-yl)phenyl][(trifluoromethyl)sulfonyl]amino]methyl 2,2-dimethylpropanoate] has a pest or weed control at 125 g/ha ([1]; 125 g ai/ha, visual injury on 0 to 100 scale (0 no effect, 100 complete control), approximately 10 days, read-out: Ryegrass, Italian plant response rating) of 0%, a pest or weed control at 500 g/ha ([1]; 500 g ai/ha, 0 to 100 scale (0 no effect, 100 complete control), read-out: Plant response rating, Ryegrass, Italian) of 100% and a pest or weed control at 125 g/ha ([2]; 125 g ai/ha, read-out: Plant response rating, Pigweed) of 10%. The pest or weed control at 500 g/ha ([2]; 500 g ai/ha, visual injury vs untreated controls after approx. 10 days, read-out: Pigweed plant response rating) was 80%, the pest or weed control at 250 g/ha [3] was 95% and the pest or weed control at 125 g/ha ([4]; 125 g ai/ha, visual injury on 0 to 100 scale (0 no effect, 100 complete control), approximately 10 days, read-out: Foxtail, Giant plant response rating) was 20%. The pest or weed control at 500 g/ha ([4]; 500 g ai/ha, 0 to 100 scale (0 no effect, 100 complete control), read-out: Plant response rating, Foxtail, Giant) was 90%, the pest or weed control at 125 g/ha ([5]; 125 g ai/ha, visual injury on 0 to 100 scale (0 no effect, 100 complete control), approximately 10 days, read-out: Barnyardgrass plant response rating) was 40% and the pest or weed control at 500 g/ha ([5]; 500 g ai/ha, 0 to 100 scale (0 no effect, 100 complete control), read-out: Plant response rating, Barnyardgrass) was 100%.
